The values below come from PubChem BioAssay (NCI).

Structures are written as SMILES.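 Values below derive from 48-hour exposures of cells grown in 96-well plates, with endpoints linearly interpolated between the two concentrations bracketing the appropriate inhibition level. Here, GI50 denotes the concentration required for 50% inhibition of growth. The concentration for full growth arrest is given as TGI.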 Some results are limits rather than exact numbers.

What all share (assay): growth of human tumour cells (NCI), 48 h
Test [1] deals with HS 578T breast.
For test [2], the system named is BT-549 breast.
Test [3] deals with MCF7 breast.
Test [4] deals with DU-145 prostate.
Test [5] deals with MDA-MB-435.
Test [6] concerns NCI/ADR-RES ovarian.

For the compound `CC(C)=CCC[C@](C)(O)[C@H]1CC[C@]2(C)[C@@H]1CC[C@@H]1[C@@]3(C)CC[C@H](OC(=O)CCC(=O)O)C(C)(C)[C@@H]3CC[C@]12C`, the GI50 in test [1] was 45.8 µM; in test [2] it was greater than 100 µM; in test [3], 29.3 µM; in test [4], 27.5 µM; in test [5], 29.3 µM; in test [6] it was 30.4 µM. Further, the TGI in test [1], in test [2], in test [3], in test [4], in test [5] and in test [6] was greater than 100 µM each time.

`O=C(O)CCN1C(=O)/C(=C/C(Cl)=C/c2ccccc2)SC1=S`: the GI50 is 3.18 µM in test [1]; 2.14 µM in test [2]; 1.98 µM in test [3]; 3.14 µM in test [4]; 2.95 µM in test [5]; 2.6 µM in test [6]. For the same compound, the TGI in test [1] was 17.3 µM; in test [2], 6.27 µM; in test [3] it was 13.1 µM; in test [4], 12.4 µM; in test [5] it was 11.6 µM; in test [6], 9.59 µM.

`O=C1CCC(c2ccccc2)(c2ccccc2)CC1`: the TGI in test [1], in test [2], in test [3], in test [4], in test [5] and in test [6] was greater than 100 µM in each case.

`C[C@@H]1CC[C@H]2C(CN3CCN(CC4=C(C(F)(F)F)O[C@@H]5O[C@@]6(C)CC[C@H]7[C@H](C)CC[C@@H]4[C@@]57OO6)CC3)=C(C(F)(F)F)O[C@@H]3O[C@@]4(C)CC[C@@H]1[C@]32OO4`: the GI50 in test [1] is 1.75 µM; in test [2], 2.53 µM; in test [3], 3.13 µM; in test [4], 16.9 µM; in test [5], 1.09 µM; in test [6], greater than 100 µM. In addition, the TGI in test [1] was greater than 47.3 µM; in test [2] it was greater than 100 µM; in test [3], greater than 100 µM; in test [4] it was greater than 100 µM; in test [5], greater than 100 µM; in test [6] it was greater than 100 µM.

`COc1ccccc1OCC(O)CO` (stereo not drawn): the GI50 in test [1], in test [2], in test [3], in test [4], in test [5] and in test [6] was greater than 100 µM throughout. The TGI in test [1], in test [2], in test [3], in test [4], in test [5] and in test [6] was greater than 100 µM in each case.

As to `CCNC1=CC(=O)c2ncccc2C1=O`, the GI50 in test [1] was 1.69 µM; in test [2] it was 1.54 µM; in test [3] it was 1.17 µM; in test [4], 1.18 µM; in test [5] it was 0.4 µM; in test [6], 3.75 µM. The TGI in test [1] came out at 6.27 µM; in test [2], 3.15 µM; in test [3], 3.2 µM; in test [4], 2.44 µM; in test [5], 1.5 µM; in test [6], 28.2 µM.

Take `CC(Cl)CC(=O)Nc1ccc2c(c1)oc(=O)c1cc(NC(=O)CC(C)Cl)ccc12` (stereo not drawn): the GI50 in test [1] is 2.36 µM; in test [2] it was 22.1 µM; in test [3], 7.9 µM; in test [4] it was 15.1 µM; in test [5] it was 18.3 µM; in test [6] it was 12.4 µM. Also, the TGI was 22.6 µM in test [1]; 53.3 µM in test [2]; 23.1 µM in test [3]; 34.1 µM in test [4]; greater than 100 µM in test [5]; 51 µM in test [6].

For `O=c1c2c(=NCCCN3CCCC3)cc3c(=O)n(CCCN4CCCC4)c(=O)c4c(NCCCN5CCCC5)cc(c(O)n1CCCN1CCCC1)c2c4-3`, the GI50 in test [1] was 2.67 µM; in test [2] it was 14.1 µM; in test [3], 1.42 µM; in test [4], 2.96 µM; in test [5], 3.04 µM; in test [6], 20.2 µM. For the same compound, the TGI in test [1] was 9.63 µM; in test [2], 36.1 µM; in test [3], 10.9 µM; in test [4], 7.79 µM; in test [5], 11.3 µM; in test [6], greater than 100 µM.

As to `CCn1cc(C2NC(=O)c3cc(F)ccc3N2)c2cccc(Cl)c21` (stereo not drawn), the GI50 in test [1] was 0.197 µM; in test [2] it was 0.327 µM; in test [3], 0.0913 µM; in test [4] it was 0.379 µM; in test [5] it was 0.0367 µM; in test [6], 0.081 µM. For the same compound, the TGI was greater than 23.1 µM in test [1]; greater than 100 µM in test [2]; greater than 100 µM in test [3]; greater than 100 µM in test [4]; 0.142 µM in test [5]; 0.75 µM in test [6].

As for `C=C1C(=O)O[C@H]2[C@H](OC(C)=O)[C@@H](C)CCC/C(C)=C/CC[C@]3(CO3)[C@H](O)C[C@@H]12`, the GI50 was 14.4 µM in test [1]; 3.77 µM in test [2]; 3.24 µM in test [3]; 2.56 µM in test [4]; 3.01 µM in test [5]; 5.92 µM in test [6]. In addition, the TGI came out at 35.3 µM in test [1]; 15.4 µM in test [2]; 12 µM in test [3]; 10.2 µM in test [4]; 7.99 µM in test [5]; 35.2 µM in test [6].

For the compound `Cn1cc(/C=C2\C(=O)Nc3cccnc32)c2ccccc21`, the GI50 in test [1] is 8.58 µM; in test [2], greater than 25 µM; in test [3], 8.04 µM; in test [4], 18 µM; in test [5] it was 18 µM; in test [6] it was 20.4 µM. Also, the TGI in test [1], in test [2], in test [3], in test [4], in test [5] and in test [6] was greater than 25 µM in each case.

As for `Cc1cc(I)cc(CN(C)CCCCN2CCCC2)c1O`, the GI50 in test [1] was 11.5 µM; in test [2], 13.6 µM; in test [3] it was 16.9 µM; in test [4], 35.8 µM; in test [5] it was 11.1 µM; in test [6] it was 35.2 µM. Also, the TGI is 32.8 µM in test [1]; 33.5 µM in test [2]; 36.8 µM in test [3]; greater than 100 µM in test [4]; 27.9 µM in test [5]; greater than 100 µM in test [6].
